In brackets after ≈: the same amount, converted by molar mass. Activity calls are given as the source filed them. The calls are words filed in the database; no cut-off is given here.
Columns and labels:
Assay type in all cases: functional
Escherichia coli [1] = assay: Antibacterial activity against Escherichia coli ATCC 25922 after 24 hr by two-fold serial dilution test; details: ATCC 25922, 24 h
Bacillus subtilis [2] = assay: Antibacterial activity against Bacillus subtilis ATCC 9372 after 24 hr by two-fold serial dilution test; details: ATCC 9372, 24 h
Staphylococcus aureus [3] = assay: Antibacterial activity against Staphylococcus aureus ATCC 25923 after 24 hr by two-fold serial dilution test; details: ATCC 25923, 24 h
Proteus vulgaris = assay: Antibacterial activity against Proteus vulgaris ATCC 14153 after 24 hr by two-fold serial dilution test; details: ATCC 14153, 24 h
Escherichia coli [4] = assay: Antibacterial activity against Escherichia coli ATCC 25922 at 400 ug/mL after 24 hr by agar well diffusion assay
Staphylococcus aureus [5] = assay: Antibacterial activity against Staphylococcus aureus ATCC 25923 at 400 ug/mL after 24 hr by agar well diffusion assay
Bacillus subtilis [6] = assay: Antibacterial activity against Bacillus subtilis ATCC 9372 at 400 ug/mL after 24 hr by agar well diffusion assay

Row | Compound | MIC (Escherichia coli [1]) | MIC (Bacillus subtilis [2]) | MIC (Staphylococcus aureus [3]) | MIC (Proteus vulgaris) | diameter of the inhibition zone (DIZ) (Escherichia coli [4]) | diameter of the inhibition zone (DIZ) (Staphylococcus aureus [5]) | diameter of the inhibition zone (DIZ) (Bacillus subtilis [6])
1 | CCCCCCCCOc1cc(O)c2c(c1)O[C@H](c1ccc(OC)c(O)c1)CC2=O [7-OCTOXYHESPERETIN] | 25 µg/mL (≈ 60.3 µM) | 50 µg/mL (≈ 121 µM) | 12.5 µg/mL (≈ 30.2 µM) | 25 µg/mL (≈ 60.3 µM) | – | – | –
2 | COc1cc(O)c2c(c1)O[C@H](c1ccc(OC)c(O)c1)CC2=O [7-METHOXYHESPERETIN] | 200 µg/mL (≈ 632 µM) | 200 µg/mL (≈ 632 µM) | 100 µg/mL (≈ 316 µM) | 50 µg/mL (≈ 158 µM) | – | – | –
3 | COc1ccc([C@@H]2CC(=O)c3c(O)cc(O[C@@H]4O[C@H](CO[C@@H]5O[C@@H](C)[C@H](O)[C@@H](O)[C@H]5O)[C@@H](O)[C@H](O)[C@H]4O)cc3O2)cc1O [HESPERIDIN] | – | – | – | 200 µg/mL (≈ 328 µM) | inactive | inactive | inactive
4 | CN[C@@H]1[C@H](O[C@H]2[C@H](O[C@H]3[C@H](O)[C@@H](O)[C@H](N=C(N)N)[C@@H](O)[C@@H]3N=C(N)N)O[C@@H](C)[C@]2(O)C=O)O[C@@H](CO)[C@H](O)[C@H]1O.CN[C@@H]1[C@H](O[C@H]2[C@H](O[C@H]3[C@H](O)[C@@H](O)[C@H](N=C(N)N)[C@@H](O)[C@@H]3N=C(N)N)O[C@@H](C)[C@]2(O)C=O)O[C@@H](CO)[C@H](O)[C@H]1O.O=S(=O)(O)O.O=S(=O)(O)O.O=S(=O)(O)O [STREPTOMYCIN SULFATE] | 1.56 µg/mL | 50 µg/mL | 25 µg/mL | 3.13 µg/mL | – | – | –
5 | COc1ccc([C@@H]2CC(=O)c3c(O)cc(O)cc3O2)cc1O [HESPERETIN] | – | 200 µg/mL (≈ 662 µM) | – | 100 µg/mL (≈ 331 µM) | inactive | inactive | –
6 | CCCCCCCCCCCCOc1cc(O)c2c(c1)O[C@H](c1ccc(OC)c(O)c1)CC2=O [7-DODECYLOXYHESPERETIN] | 50 µg/mL (≈ 106 µM) | 50 µg/mL (≈ 106 µM) | 6.25 µg/mL (≈ 13.3 µM) | 12.5 µg/mL (≈ 26.6 µM) | – | – | –
7 | CCCCOc1cc(O)c2c(c1)O[C@H](c1ccc(OC)c(O)c1)CC2=O [7-BUTOXYHESPERETIN] | 100 µg/mL (≈ 279 µM) | 100 µg/mL (≈ 279 µM) | 25 µg/mL (≈ 69.8 µM) | 50 µg/mL (≈ 140 µM) | – | – | –
